According to the supplement of paper PMC10307832:

Key:
Assay in all cases: relative viability (nuclei count vs DMSO), 5 days (fraction); higher = more cells survive
[1] = compound: C(C(=O)C(=O)O)Br [Bromopyruvate] + Cc1nc(Nc2ncc(C(=O)Nc3c(C)cccc3Cl)s2)cc(N2CCN(CCO)CC2)n1 [Dasatinib] (partner 0.075 µM)
Outline: (§1)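 One day after seeding in 1536-well plates, lung cancer cell lines were dosed by pin tool. Dosing was either single-drug or a fixed anchor-drug dose plus five library-drug doses (not always all listed) in √10 steps. After 5 days, nuclei were stained in one fix-and-stain step and counted on 4× images, and relative viability is the nuclei count of treated wells over that of vehicle wells, given as the median of duplicate plates.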

Bicalutamide + Olaparib = compound: CC(O)(CS(=O)(=O)c1ccc(F)cc1)C(=O)Nc1ccc(C#N)c(C(F)(F)F)c1 [Bicalutamide] + O=C(c1cc(Cc2n[nH]c(=O)c3ccccc23)ccc1F)N1CCN(C(=O)C2CC2)CC1 [Olaparib] (partner 8 µM)
Outline: as §1

[2] = compound: CC(O)(CS(=O)(=O)c1ccc(F)cc1)C(=O)Nc1ccc(C#N)c(C(F)(F)F)c1 [Bicalutamide] + C[C@@H](Oc1cc(-c2cnn(C3CCNCC3)c2)cnc1N)c1c(Cl)ccc(F)c1Cl [Crizotinib] (partner 1 µM)
Outline: as §1

[3] = compound: C(C(=O)C(=O)O)Br [Bromopyruvate] + CS(=O)(=O)CCNCc1ccc(-c2ccc3ncnc(Nc4ccc(OCc5cccc(F)c5)c(Cl)c4)c3c2)o1 [Lapatinib] (partner 2 µM)
Outline: as §1

Row | Cell Line | relative viability ([1]; first compound 1 µM) | relative viability ([1]; first compound 3.162 µM) | relative viability ([1]; first compound 10 µM) | relative viability ([1]; first compound 31.62 µM) | relative viability ([1]; first compound 100 µM) | relative viability (Bicalutamide + Olaparib; first compound 0.08 µM) | relative viability (Bicalutamide + Olaparib; first compound 0.253 µM) | relative viability (Bicalutamide + Olaparib; first compound 0.8 µM) | relative viability (Bicalutamide + Olaparib; first compound 2.53 µM) | relative viability ([2]; first compound 0.08 µM) | relative viability ([2]; first compound 0.253 µM) | relative viability ([2]; first compound 0.8 µM) | relative viability ([2]; first compound 2.53 µM) | relative viability ([3]; first compound 1 µM) | relative viability ([3]; first compound 3.162 µM) | relative viability ([3]; first compound 10 µM) | relative viability ([3]; first compound 31.62 µM) | relative viability ([3]; first compound 100 µM)
1 | NCI-H358 | 0.197 | 0.149 | 0.143 | 0.171 | 0.167 | 0.664 | 0.519 | 0.706 | 0.595 | 0.831 | 0.616 | 0.44 | 0.399 | 0.435 | 0.449 | 0.482 | 0.483 | 0.451
2 | NCI-H460 | 0.523 | 0.509 | 0.502 | 0.539 | 0.494 | 0.439 | 0.391 | 0.436 | 0.383 | 0.896 | 0.798 | 1.28 | 0.825 | 0.967 | 0.881 | 1.8 | 1.01 | 0.967
3 | NCI-H520 | 0.216 | 0.222 | 0.154 | 0.251 | 0.241 | 0.342 | 0.31 | 0.335 | 0.337 | 0.836 | 0.681 | 0.93 | 0.577 | 0.846 | 0.966 | 0.98 | 0.766 | 0.739
4 | NCI-H596 | 0.6 | 0.527 | 0.676 | 0.747 | 0.685 | 0.604 | 0.767 | 0.799 | 0.844 | 0.898 | 1.51 | 1.08 | 1.04 | 1.11 | 1.08 | 1.15 | 1.01 | 1.16
5 | NCI-H647 | 0.156 | 0.218 | 0.215 | 0.187 | 0.169 | 0.571 | 0.384 | 0.591 | 0.381 | 1.11 | 1.23 | 1.56 | 0.777 | 1.02 | 0.972 | 1.19 | 1.15 | 0.916
6 | NCI-H650 | 0.523 | 0.442 | 0.487 | 0.439 | 0.576 | 0.373 | 0.395 | 0.401 | 0.396 | 0.725 | 0.645 | 0.932 | 0.438 | 1.12 | 1.16 | 0.966 | 0.885 | 0.769
7 | NCI-H661 | 0.785 | 1.02 | 0.929 | 0.943 | 1.05 | 0.815 | 0.768 | 0.74 | 0.779 | 1.14 |  | 0.881 | 0.989 | 0.52 | 0.475 | 0.623 | 0.526 | 0.559
8 | NCI-H727 | 0.474 | 0.301 | 0.29 | 0.401 | 0.314 | 0.895 | 0.678 | 0.614 | 0.732 | 0.928 | 0.85 | 0.936 | 0.781 | 1.13 | 0.928 | 0.862 | 0.781 | 0.86
9 | NCI-H838 | 0.325 | 0.277 | 0.208 | 0.302 | 0.264 | 0.777 | 0.778 | 0.733 | 0.522 | 0.823 | 0.762 | 0.833 | 0.602 | 1.05 | 0.962 | 1.01 | 1.01 | 0.936
10 | NCI-H1355 | 0.674 | 0.761 | 0.766 | 0.713 | 0.786 | 0.711 | 0.696 | 0.848 | 0.668 | 1.12 | 0.993 | 1.14 | 1.04 | 0.978 | 0.986 | 1.06 | 0.995 | 0.965
11 | NCI-H1437 | 0.491 | 0.493 | 0.427 | 0.317 | 0.415 | 0.613 | 0.614 | 0.63 | 0.613 | 0.899 | 0.893 | 0.895 | 0.923 | 0.845 | 0.768 | 1.1 | 0.801 | 0.804
12 | NCI-H1650 | 0.309 | 0.268 | 0.289 | 0.395 | 0.211 | 0.989 | 0.759 | 0.899 | 0.723 | 0.892 | 0.937 | 0.979 | 0.992 | 0.765 | 0.69 | 0.75 | 0.81 | 0.815
13 | NCI-H1651 | 0.409 | 0.462 | 0.527 | 0.411 | 0.428 | 0.203 | 0.167 | 0.192 | 0.181 | 0.868 | 0.861 | 0.912 | 0.892 | 0.858 | 0.909 | 0.905 | 0.764 | 0.829
14 | NCI-H1666 | 0.847 | 0.839 | 0.785 | 0.855 | 0.694 | 0.733 | 0.814 | 0.728 | 0.744 | 1.13 | 0.969 | 1.15 | 0.794 | 0.823 | 0.666 | 0.677 | 0.701 | 0.557
15 | NCI-H1734 | 0.462 | 0.436 | 0.548 | 0.44 | 0.365 | 0.623 | 0.546 | 0.685 | 0.606 | 0.667 | 0.553 | 0.798 | 0.616 | 1.08 | 0.944 | 1.26 | 1.08 | 1.12
16 | NCI-H1755 | 0.439 | 0.46 | 0.469 | 0.464 | 0.475 | 0.87 | 0.817 | 0.901 | 0.857 | 0.901 | 0.803 | 0.849 | 0.791 | 0.988 | 1.02 | 1.02 | 1.07 | 1.19
